Converted amounts (≈) assume the structure as drawn.
Legend:
Phytophthora infestans [1] = type: in vivo, Phytophthora infestans (on tomato plants); details: tomato, sprayed 0.06% active ingredient 22 hours after infestation, evaluated 5 days after infestation
Phytophthora infestans [2] = type: in vivo, Phytophthora infestans (on tomato plants); details: tomato, spray 0.06% active ingredient, infested after 24 hours, evaluated after 5 days at 20° C.
Pythium debaryanum [3] = test: Action on Pythium debaryanum on sugar beets, (a) after soil application; type: in vivo; details: sugar beet, 20 ppm of active ingredient based on volume of soil, 2-3 weeks at 20°-24° C.
Description: (§1) Action on Pythium debaryanum on sugar beets
(a) Action after soil application
The fungus is cultivated on carrot chips nutrient solution and added to a mixture of earth and sand. Flower pots are filled with the infected soil, in which sugar beet seeds are then sown. Immediately after sowing, the test preparations formulated as wettable powders are poured in the form of aqueous suspensions over the soil (20 ppm of active ingredient, based on the volume of the soil). The pots are then stood for 2-3 weeks in a greenhouse at 20°-24° C. The soil is kept uniformly moist by gently spraying it with water. The emergence of the sugar beet plants as well as the number of healthy and sick plants are ascertained in evaluating the test.

Podosphaera leucotricha = test: Residual-protective action against Podosphaera leucotricha on apples; type: in vivo; details: apple seedlings, spray 0.06% of active ingredient, evaluated 12 days after infection
Procedure: Residual-protective action against Podosphaera leucotricha on apples
Apple seedlings in the 5-leaf stage are sprayed with a spray mixture (0.06% of active ingredient) prepared from a wettable powder formulation of the active ingredient. After 24 hours the treated plants are infected with a conidia suspension of the fungus and placed in a climatic chamber at 70% relative humidity and 20° C. Evaluation of fungus infestation is made 12 days after infection.

Water solubility = type: physicochemical; details: 25° C.
Description: (§2) Determination of physico-chemical data
(a) Reduced water solubility

[4] = Volatility: evaporation half-life T50 in an evaporating tube; type: physicochemical; details: 50° C., stream of air of 20 m/h, relative to T50 of Metalaxyl
Procedure: as §2
In an evaporating tube, the evaporation half-life values T50 of representative fungicides of this invention are determined at 50° C. and in a stream of air of 20 m/h. The values are shown below, relative to the corresponding half-life T50 of Metalaxyl.

Pythium debaryanum [5] = test: Action on Pythium debaryanum on sugar beets, (b) after seed dressing application; type: in vivo; details: sugar beet, seed dressing 0.06%, 2-3 weeks at c. 20° C.
Procedure: as §1
(b) Action after seed dressing application
The fungus is cultivated on carrot chip nutrient solution and added to a mixture of earth and sand. Flower pots are filled with the infected soil and sugar beet seeds which have been treated with the test preparations formulated as seed dressing powders are sown therein (0.06% of one of the compounds of Tables 1 and 2). The pots are then stood in a greenhouse for 2-3 weeks at c. 20° C. The soil is kept uniformly moist by gently spraying it with water. The emergence of the sugar beet plants is ascertained in evaluating the test.

Venturia inaequalis = test: Residual-protective action against Venturia inaequalis on apple shoots; type: in vivo; details: spray 0.06%, evaluated 15 days after infection
Procedure: Residual-protective action against Venturia inaequalis on apple shoots
Apple cuttings with 10-20 cm long fresh shoots are sprayed with a spray mixture prepared from a wettable powder formulation of the active ingredient (0.06%). After 24 hours the treated plants are infected with a conidia suspension of the fungus. The plants are then incubated for 5 days at 90-100% relative humidity and stood in a greenhouse for a further 10 days at 20°-24° C. Scab infestation is evaluated 15 days after infection.

Erysiphe graminis = test: Action against Erysiphe graminis on barley, residual protective action; type: in vivo, Erysiphe graminis (on barley plants); details: 0.02% active ingredient sprayed, infected after 3-4 hours, evaluated after 10 days
Procedure: Action against Erysiphe graminis on barley
Residual protective action
Barley plants about 8 cm in height are sprayed with a spray mixture (0.02% of active ingredient) prepared from the active ingredient formulated as a wettable powder. The treated plants are dusted with conidia of the fungus after 3-4 hours. The infected barley plants are then stood in a greenhouse at about 22° C. The extent of the fungus infection is evaluated after 10 days.

COCC(=O)N(c1c(C)cccc1N)C(C)C(=O)OC (stereo not shown) [Compound 2, N-(1'-methoxycarbonylethyl)-N-methoxyacetyl-2-amino-6-methyl-aniline]
fungus attack compared with untreated and infected control plants (100% attack), residual curative (Phytophthora infestans [1]): less than 10%
fungus attack compared with untreated control plants (100% attack), residual-protective (Phytophthora infestans [2]): less than 10%
emergent plants (fully effective against Pythium pathogens), soil application (Pythium debaryanum [3]): over 90%
fungus attack compared with untreated and infected control seedlings (100% attack) (Podosphaera leucotricha): less than 10%
solubility (Water solubility): 300 µg/mL (≈ 1.07 mM)
Multiple of Metalaxyl T50 (evaporation half-life) [4]: 5.4 ×
emergent plants (fully effective against Pythium pathogens), seed dressing application (Pythium debaryanum [5]): over 90%

COCC(=O)N(c1c(N)ccc(C)c1C)C(C)C(=O)OC (stereo not shown) [Compound 8, N-(1'methoxycarbonylethyyl)-N-methoxyacetyl-2,3-dimethyl-6-aminoaniline]
fungus attack compared with untreated and infected control plants (100% attack), residual curative (Phytophthora infestans [1]): less than 10%
fungus attack compared with untreated control plants (100% attack), residual-protective (Phytophthora infestans [2]): less than 10%
emergent plants (fully effective against Pythium pathogens), soil application (Pythium debaryanum [3]): over 90%
fungus attack compared with untreated and infected control seedlings (100% attack) (Podosphaera leucotricha): less than 10%
scab infestation (reduced to) (Venturia inaequalis): 10-15%
emergent plants (fully effective against Pythium pathogens), seed dressing application (Pythium debaryanum [5]): over 90%

COCC(=O)N(c1c(C)ccc(N)c1C)C(C)C(=O)OC (stereo not shown) [Compound 10, N-(1'methoxycarbonylethyl)-N-methoxyacetyl-2,6-dimethyl-3-aminoaniline]
fungus attack compared with untreated and infected control plants (100% attack), residual curative (Phytophthora infestans [1]): less than 10%
fungus attack compared with control plants (100% attack) (Erysiphe graminis): less than 10%
fungus attack compared with untreated control plants (100% attack), residual-protective (Phytophthora infestans [2]): less than 10%
emergent plants (fully effective against Pythium pathogens), soil application (Pythium debaryanum [3]): over 90%
fungus attack compared with untreated and infected control seedlings (100% attack) (Podosphaera leucotricha): less than 10%
scab infestation (reduced to) (Venturia inaequalis): 10-15%
emergent plants (fully effective against Pythium pathogens), seed dressing application (Pythium debaryanum [5]): over 90%

COCC(=O)N(c1c(C)ccc([N+](=O)[O-])c1C)C(C)C(=O)OC (stereo not shown) [Compound 28, N-(1'-methoxycarbonylethyl)-N-methoxyacetyl-2,6-dimethyl-3-nitroaniline]
fungus attack compared with untreated and infected control plants (100% attack), residual curative (Phytophthora infestans [1]): less than 10%
fungus attack compared with untreated control plants (100% attack), residual-protective (Phytophthora infestans [2]): less than 10%
emergent plants (fully effective against Pythium pathogens), soil application (Pythium debaryanum [3]): over 90%
fungus attack compared with untreated and infected control seedlings (100% attack) (Podosphaera leucotricha): less than 10%
solubility (Water solubility): 2500 µg/mL (≈ 7.71 mM)
scab infestation (reduced to) (Venturia inaequalis): 10-15%
Multiple of Metalaxyl T50 (evaporation half-life) [4]: 35.8 ×
emergent plants (fully effective against Pythium pathogens), seed dressing application (Pythium debaryanum [5]): over 90%

CCOCC(=O)N(c1c(C)ccc([N+](=O)[O-])c1C)C(C)C(=O)OC (stereo not shown) [Compound 31, N-(1'-methoxycarbonylethyl)-N-ethoxyacetyl-2,6-dimethyl-3-nitroaniline]
fungus attack compared with untreated and infected control plants (100% attack), residual curative (Phytophthora infestans [1]): less than 10%
fungus attack compared with untreated control plants (100% attack), residual-protective (Phytophthora infestans [2]): less than 10%
emergent plants (fully effective against Pythium pathogens), soil application (Pythium debaryanum [3]): over 90%
fungus attack compared with untreated and infected control seedlings (100% attack) (Podosphaera leucotricha): less than 10%
solubility (Water solubility): 2500 µg/mL (≈ 7.39 mM)
scab infestation (reduced to) (Venturia inaequalis): 10-15%
Multiple of Metalaxyl T50 (evaporation half-life) [4]: 41.8 ×
emergent plants (fully effective against Pythium pathogens), seed dressing application (Pythium debaryanum [5]): over 90%

COCC(=O)N(c1c(C)ccc([N+](=O)[O-])c1C)C(C)C(=O)OC(C)C (stereo not shown) [Compound 33, N-(1'-isopropyloxycarbonylethyl)-N-methoxyacetyl-2,6-dimethyl-3-nitroaniline]
fungus attack compared with untreated and infected control plants (100% attack), residual curative (Phytophthora infestans [1]): less than 10%
fungus attack compared with untreated control plants (100% attack), residual-protective (Phytophthora infestans [2]): less than 10%
emergent plants (fully effective against Pythium pathogens), soil application (Pythium debaryanum [3]): over 90%
fungus attack compared with untreated and infected control seedlings (100% attack) (Podosphaera leucotricha): less than 10%
solubility (Water solubility): 500 µg/mL (≈ 1.42 mM)
Multiple of Metalaxyl T50 (evaporation half-life) [4]: 45.6 ×
emergent plants (fully effective against Pythium pathogens), seed dressing application (Pythium debaryanum [5]): over 90%

COCC(=O)N(c1c(C)cccc1[N+](=O)[O-])C(C)C(=O)OC (stereo not shown) [Compound 48, N-(1'-methoxycarbonylethyl)-N-methoxyacetyl-2-methyl-6-nitroaniline]
fungus attack compared with untreated and infected control plants (100% attack), residual curative (Phytophthora infestans [1]): less than 10%
fungus attack compared with untreated control plants (100% attack), residual-protective (Phytophthora infestans [2]): less than 10%
emergent plants (fully effective against Pythium pathogens), soil application (Pythium debaryanum [3]): over 90%
fungus attack compared with untreated and infected control seedlings (100% attack) (Podosphaera leucotricha): less than 10%
solubility (Water solubility): 4000 µg/mL (≈ 12.9 mM)
Multiple of Metalaxyl T50 (evaporation half-life) [4]: 12.3 ×
emergent plants (fully effective against Pythium pathogens), seed dressing application (Pythium debaryanum [5]): over 90%

COCC(=O)N(c1c(N)ccc2ccccc12)C(C)C(=O)OC (stereo not shown) [Compound 701, 1N-(1'-methoxycarbonylethyl)-1N-methoxyacetyl-1,2-diaminonaphthalene]
fungus attack compared with untreated and infected control plants (100% attack), residual curative (Phytophthora infestans [1]): less than 10%
fungus attack compared with untreated control plants (100% attack), residual-protective (Phytophthora infestans [2]): less than 10%
emergent plants (fully effective against Pythium pathogens), soil application (Pythium debaryanum [3]): over 90%
scab infestation (reduced to) (Venturia inaequalis): 10-15%
emergent plants (fully effective against Pythium pathogens), seed dressing application (Pythium debaryanum [5]): over 90%
